Test results taken from PubChem BioAssay AID248 (DTP/NCI, 2004).
Inconclusive results and toxic doses are left out. Rule as the data show it: active = T/C of 150% or more; inactive = T/C below 125%.

Tested on: L1210 leukemia ip in BDF1 mice, survival T/C
Test: NCI In Vivo Anticancer Drug Screen. Data for tumor model L1210 Leukemia (intraperitoneal) in B6D2F1 (BDF1) mice
Settings: endpoint: mean survival time, higher = longer survival
How it was run: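 Value reflects the ratio of survival in compound-treated mice to survival in vehicle-treated controls, with both groups carrying the same transplanted tumor.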

Measured: T/C

O=C(c1ccccc1)c1nonc1C(=O)c1ccccc1
inactive: dose: 100.0 mg/kg/injection, schedule: Q01DX009 (ip), vehicle: saline sonified 93 % of control | dose: 100.0 mg/kg/injection, schedule: Q04DX003 (ip), vehicle: saline with Tween-80 97 % of control | dose: 200.0 mg/kg/injection, schedule: Q01DX009 (ip), vehicle: saline sonified 90 % of control | dose: 200.0 mg/kg/injection, schedule: Q04DX003 (ip), vehicle: saline with Tween-80 92 % of control | dose: 400.0 mg/kg/injection, schedule: Q01DX009 (ip), vehicle: saline sonified 93 % of control | dose: 400.0 mg/kg/injection, schedule: Q04DX003 (ip), vehicle: saline with Tween-80 97 % of control

Cc1nc2c(ncn2C2OC(CO)C(O)C2O)c(=O)[nH]1 (stereo unspecified)
inactive: dose: 100.0 mg/kg/injection, schedule: Q01DX005 (ip), vehicle: saline 103 % of control | dose: 200.0 mg/kg/injection, schedule: Q01DX005 (ip), vehicle: saline 93 % of control

O=C1C=C(NCCc2cnc[nH]2)c2ccccc2C1=O
inactive: dose: 50.0 mg/kg/injection, schedule: Q01DX009 (ip), vehicle: Klucel (hydroxypropylcellulose) (HPC) 92 % of control | dose: 100.0 mg/kg/injection, schedule: Q01DX009 (ip), vehicle: Klucel (hydroxypropylcellulose) (HPC) 103 % of control

NNc1ccc(S(=O)(=O)C(F)F)cc1
inactive: dose: 100.0 mg/kg/injection, schedule: Q01DX001 (ip), vehicle: saline 95 % of control | dose: 200.0 mg/kg/injection, schedule: Q01DX001 (ip), vehicle: saline 92 % of control | dose: 400.0 mg/kg/injection, schedule: Q01DX001 (ip), vehicle: saline 93 % of control

O=c1c(N=Nc2ccc(Cl)cc2)c(O)n(-c2ccccc2Cl)c(=S)n1-c1ccccc1
inactive: dose: 25.0 mg/kg/injection, schedule: Q01DX001 (ip), vehicle: Klucel (hydroxypropylcellulose) (HPC) 92 % of control | dose: 50.0 mg/kg/injection, schedule: Q01DX001 (ip), vehicle: Klucel (hydroxypropylcellulose) (HPC) 94 % of control | dose: 100.0 mg/kg/injection, schedule: Q01DX001 (ip), vehicle: Klucel (hydroxypropylcellulose) (HPC) 89 % of control

CC(C)(CO)NCC1CCCC(CNC(C)(C)CO)C1 (stereo unspecified)
inactive: dose: 50.0 mg/kg/injection, schedule: Q01DX001 (ip), vehicle: carboxymethylcellulose (CMC) 92 % of control | dose: 100.0 mg/kg/injection, schedule: Q01DX001 (ip), vehicle: carboxymethylcellulose (CMC) 101 % of control

CC(=O)N(N=O)c1ccc(N(N=O)C(C)=O)cc1
inactive: dose: 5.0 mg/kg/injection, schedule: Q01DX001 (ip), vehicle: saline 106 % of control | dose: 10.0 mg/kg/injection, schedule: Q01DX001 (ip), vehicle: saline 97 % of control | dose: 20.0 mg/kg/injection, schedule: Q01DX001 (ip), vehicle: saline 112 % of control
